The values below are quoted from earlier work in US12551470B2, “Metabolism enhancing compositions” (Red Mountain Med Spa, LLC, priority 2022, dated 2026).

Molecules are shown by their SMILES.

The conditions of series [1]: compared to the other phytochemicals (11 phytochemicals, Tomer et al., J. Med. Food 2007).
The conditions of series [2]: compared to the other phytochemicals (11 phytochemicals, Tomer et al., J. Med. Food 2007). The source holds these as a separate data set.

For the molecule `O=C(O)CCCC[C@@H]1CCSS1` [α-lipoic acid, (R)-5-(1,2-dithiolan-3-yl)pentanoic acid], the ORAC values entry in series [1] was “low”. Moreover, the TOSC values entry in series [2] was “high”.
